Where two headings read alike, the source gives them in different places.
What was measured:
[1] = biological target: T1, recombinant rhesus mineralocorticoid receptor (Macaca mulatta, UniProt A0A5F8ATS5); experiment: Mineralocorticoid receptor binding affinity, [3H]-aldosterone filter binding assay
T1 construct: made in house; host or cells: insect cells infected with recombinant baculovirus; clarified lysate used
T1 sequence (A0A5F8ATS5 1-984): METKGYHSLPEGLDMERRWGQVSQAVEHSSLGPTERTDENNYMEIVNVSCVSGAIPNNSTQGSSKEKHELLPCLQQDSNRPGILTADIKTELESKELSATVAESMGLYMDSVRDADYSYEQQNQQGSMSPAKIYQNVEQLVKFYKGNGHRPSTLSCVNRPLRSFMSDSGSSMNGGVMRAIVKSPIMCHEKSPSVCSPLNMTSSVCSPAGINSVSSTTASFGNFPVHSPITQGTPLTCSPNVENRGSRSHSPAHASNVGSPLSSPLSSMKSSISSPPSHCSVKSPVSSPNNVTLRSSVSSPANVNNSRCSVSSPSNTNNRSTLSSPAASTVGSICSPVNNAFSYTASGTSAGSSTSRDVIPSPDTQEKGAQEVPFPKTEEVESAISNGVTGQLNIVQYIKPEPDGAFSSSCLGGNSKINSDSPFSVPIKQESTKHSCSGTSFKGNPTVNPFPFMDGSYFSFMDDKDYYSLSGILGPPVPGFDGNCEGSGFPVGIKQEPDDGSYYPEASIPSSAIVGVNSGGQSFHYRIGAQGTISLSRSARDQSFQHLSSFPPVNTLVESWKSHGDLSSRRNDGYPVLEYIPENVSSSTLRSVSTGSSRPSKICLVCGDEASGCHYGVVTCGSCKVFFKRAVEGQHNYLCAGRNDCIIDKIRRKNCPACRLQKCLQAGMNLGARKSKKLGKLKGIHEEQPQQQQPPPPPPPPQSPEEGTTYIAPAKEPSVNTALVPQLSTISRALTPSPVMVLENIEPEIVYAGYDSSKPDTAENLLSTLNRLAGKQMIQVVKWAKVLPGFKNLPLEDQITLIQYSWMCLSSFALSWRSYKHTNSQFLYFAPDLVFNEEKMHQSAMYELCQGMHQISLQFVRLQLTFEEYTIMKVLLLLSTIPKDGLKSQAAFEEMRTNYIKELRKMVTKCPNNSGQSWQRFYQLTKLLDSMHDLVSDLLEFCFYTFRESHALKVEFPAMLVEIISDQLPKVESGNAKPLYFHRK
Method: Measurement of Mineralocorticoid Receptor Binding Affinity
The binding affinity of compounds for the mineralocorticoid receptor was determined by measuring their ability to prevent binding of radiolabeled aldosterone to recombinant rhesus mineralocorticoid receptor in a traditional filter binding assay protocol.
Rhesus mineralocorticoid receptor cDNA was cloned from a cDNA library using and used to prepare a recombinant baculovirus encoding the rhesus mineralocorticoid receptor coding sequence by standard molecular biological and cell biological methods. […] Cells were collected and lysed. The lysates were clarified by centrifugation and stored at −80 C until use in the radioligand binding assay.
[^3H]-Aldosterone (1 mCi/ml, 70-100 Ci/mmol) was purchased from Perkin Elmer (NET419). Test compounds were dissolved in DMSO and diluted in DMSO to 50 times the desired final concentrations for 3-fold serial dilution dose response curves. […] The insect cell lysate containing rhesus mineralocorticoid receptor was thawed and diluted to 0.7 mg protein/mL. Assay were started by combining 20 μL of test compound solution, 920 μL of diluted insect cell lysate, and 60 μL of [^3H]-aldosterone working solution in 2-mL 96-well polypropylene square well plates (USA Scientific) at 20° C. The mixture was incubated for 3 hr with continuous agitation on a platform shaker. […] The filter plate was washed 3 times with 0.5 mL of 50 mM Tris-HCl, pH 7.4 and then dried overnight at 37° C. in a vacuum oven. […] Non-specific radioligand binding was determined by adding non-radiolabeled aldosterone (0.5 mM in DMSO) to the assay mixture to a final concentration of 10 μM in place of test compound. IC50 and Ki values were determined using a four parameter logistic fit using a customized assay data analyzer software package.

[2] = biological target: T2, Cav1.2 (Homo sapiens, UniProt Q13936); experiment: Calcium channel block, FLIPR TETRA fluorescence assay in HEK293 cells expressing L-type calcium channels; format: cell-based; conditions: pH 7.2, 25 mM potassium; for inhibition at 30 min, 0.3 μM: 0.3 μM compound, read-out: FLIPRIETRA Cav1.2 % Inhibition 0.3 μM; for inhibition at 30 min, 1 μM: 1 μm compound, read-out: FLIPRIETRA Cav1.2 % Inhibition 1 μm; for inhibition at 30 min, 3 μM: 3 μm compound, read-out: FLIPRIETRA Cav1.2 % Inhibition 3 μm; for inhibition at 30 min, 10 μM: 10 μm compound, read-out: FLIPRIETRA Cav1.2 % Inhibition 10 μm; for inhibition at 30 min, 30 μM: 30 μm compound, read-out: FLIPRIETRA Cav1.2 % Inhibition 30 μm
T2 construct: expressed in transfected cells; host or cells: HEK293 cell line (Xia, et al., 2004) also expressing Kir2.3
Method: Measurement of Calcium Channel Block
A high-throughput fluorescence assay for state-dependent block of L-type channels was established as a counterscreen for blockers of N-type calcium channels. […] This allows the cell membrane potential to be preset during compound incubation, which can be used to assay state-dependent channel block. Running the assay in the presence of high potassium (25 mM) sets the membrane potential to a value (−35 mV) at which approximately half of the calcium channels are inactivated and some are open. This condition favors block by many L-type calcium channel blockers that lower blood pressure, including dihydropyridines, phenylalkylamines and benzothiazepines.
Initially, the compounds were incubated in 0.005 μM calcium and 25 mM potassium for 30 minutes. Calcium influx was triggered by buffer addition that raises the calcium concentration to 2 mM while maintaining the potassium concentration at 25 mM. Changes in intracellular calcium were then monitored using a calcium-sensitive fluorescent dye (fluo-4) and a FLIPR^TETRA plate reader.
The following experimental protocol was used:
1. Cells were seeded in a Poly-D-Lysine Coated 384-well plate (50 μl/well) and incubated overnight at 37° C. under 10% CO2;
4. Cells were then incubated in the dark at 25° C. for 30 minutes;
5. […] 25 mM KCl, 0.005 mM CaCl2, 1.7 mM MgCl2, 10 HEPES, pH=7.2;
6. 0.025 ml of 25 mM K PPB was then added, with or without the presence of a test compound;
7. Cells incubated in the dark at 25° C. for 30 min
8. Cell plates are then read on the FLIPR^TETRA instrument, Excitation=480 nm, Emission=535 nm;

[3] = system: patients suffering from advanced CHF; conditions: in combination with standard CHF therapy; cited from earlier work
[4] = average of Rep#1 and Rep#2, read-out: MRBIND Ki (nM) Average
[5] = replicate 1, read-out: MRBIND Ki (nM) Rep#1
[6] = replicate 2, read-out: MRBIND Ki (nM) Rep#2

T2 sequence (Q13936 whole entry): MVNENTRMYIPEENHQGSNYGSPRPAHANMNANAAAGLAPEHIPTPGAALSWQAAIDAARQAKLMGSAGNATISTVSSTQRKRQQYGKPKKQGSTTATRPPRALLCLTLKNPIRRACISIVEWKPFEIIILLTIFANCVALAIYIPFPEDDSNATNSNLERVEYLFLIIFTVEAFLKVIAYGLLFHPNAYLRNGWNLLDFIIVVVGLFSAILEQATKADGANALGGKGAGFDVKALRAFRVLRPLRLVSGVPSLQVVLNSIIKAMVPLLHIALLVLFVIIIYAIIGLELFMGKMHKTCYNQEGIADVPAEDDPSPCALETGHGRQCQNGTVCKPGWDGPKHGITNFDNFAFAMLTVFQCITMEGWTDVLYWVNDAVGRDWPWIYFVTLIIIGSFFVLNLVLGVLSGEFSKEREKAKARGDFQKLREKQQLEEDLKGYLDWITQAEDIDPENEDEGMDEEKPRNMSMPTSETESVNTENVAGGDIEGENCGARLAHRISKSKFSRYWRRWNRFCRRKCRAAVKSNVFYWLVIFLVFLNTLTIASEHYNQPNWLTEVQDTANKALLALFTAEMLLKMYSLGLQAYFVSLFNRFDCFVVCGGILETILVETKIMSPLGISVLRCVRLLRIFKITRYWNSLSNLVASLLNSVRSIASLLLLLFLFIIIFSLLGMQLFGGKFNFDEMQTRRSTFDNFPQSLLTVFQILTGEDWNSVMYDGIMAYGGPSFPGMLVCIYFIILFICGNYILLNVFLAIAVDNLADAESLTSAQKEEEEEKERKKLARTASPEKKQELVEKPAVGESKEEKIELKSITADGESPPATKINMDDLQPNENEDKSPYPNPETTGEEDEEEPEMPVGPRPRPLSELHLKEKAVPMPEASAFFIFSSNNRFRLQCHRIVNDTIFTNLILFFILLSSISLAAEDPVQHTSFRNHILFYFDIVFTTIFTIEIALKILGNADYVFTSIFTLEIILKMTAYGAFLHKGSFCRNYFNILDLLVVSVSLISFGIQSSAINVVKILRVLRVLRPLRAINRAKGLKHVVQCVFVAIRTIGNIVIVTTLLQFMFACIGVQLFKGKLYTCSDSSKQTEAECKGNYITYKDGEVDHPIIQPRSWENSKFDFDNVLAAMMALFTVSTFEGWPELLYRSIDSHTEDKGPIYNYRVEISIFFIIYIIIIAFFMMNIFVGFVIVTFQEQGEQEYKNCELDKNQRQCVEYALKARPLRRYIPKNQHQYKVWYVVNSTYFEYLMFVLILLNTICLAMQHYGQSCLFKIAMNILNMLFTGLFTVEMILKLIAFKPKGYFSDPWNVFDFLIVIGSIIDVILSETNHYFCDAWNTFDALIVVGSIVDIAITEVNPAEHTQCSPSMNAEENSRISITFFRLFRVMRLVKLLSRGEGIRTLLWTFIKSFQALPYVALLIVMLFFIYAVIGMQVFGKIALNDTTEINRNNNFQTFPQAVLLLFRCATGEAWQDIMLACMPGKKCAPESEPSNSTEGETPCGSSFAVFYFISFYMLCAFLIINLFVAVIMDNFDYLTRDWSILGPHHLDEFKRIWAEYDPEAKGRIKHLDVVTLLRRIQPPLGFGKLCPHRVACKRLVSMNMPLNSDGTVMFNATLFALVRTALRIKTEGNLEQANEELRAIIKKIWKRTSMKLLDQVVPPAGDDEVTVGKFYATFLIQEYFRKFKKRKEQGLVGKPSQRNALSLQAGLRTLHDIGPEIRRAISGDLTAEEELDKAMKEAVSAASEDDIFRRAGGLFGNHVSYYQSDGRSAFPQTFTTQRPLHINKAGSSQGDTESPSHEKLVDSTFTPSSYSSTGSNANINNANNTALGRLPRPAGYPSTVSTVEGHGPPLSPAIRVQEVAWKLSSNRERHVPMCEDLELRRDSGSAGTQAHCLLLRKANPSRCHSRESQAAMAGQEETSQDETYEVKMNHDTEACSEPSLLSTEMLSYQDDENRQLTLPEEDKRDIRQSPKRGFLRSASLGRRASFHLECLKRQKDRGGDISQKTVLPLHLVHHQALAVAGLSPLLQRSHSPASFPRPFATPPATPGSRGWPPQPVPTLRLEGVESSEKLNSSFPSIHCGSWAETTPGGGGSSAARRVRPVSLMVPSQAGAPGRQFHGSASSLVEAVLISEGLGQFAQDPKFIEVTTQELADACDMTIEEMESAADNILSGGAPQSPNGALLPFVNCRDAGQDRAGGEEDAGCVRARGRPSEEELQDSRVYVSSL
T2 sequence (P54289 25-946 partner limits assumed): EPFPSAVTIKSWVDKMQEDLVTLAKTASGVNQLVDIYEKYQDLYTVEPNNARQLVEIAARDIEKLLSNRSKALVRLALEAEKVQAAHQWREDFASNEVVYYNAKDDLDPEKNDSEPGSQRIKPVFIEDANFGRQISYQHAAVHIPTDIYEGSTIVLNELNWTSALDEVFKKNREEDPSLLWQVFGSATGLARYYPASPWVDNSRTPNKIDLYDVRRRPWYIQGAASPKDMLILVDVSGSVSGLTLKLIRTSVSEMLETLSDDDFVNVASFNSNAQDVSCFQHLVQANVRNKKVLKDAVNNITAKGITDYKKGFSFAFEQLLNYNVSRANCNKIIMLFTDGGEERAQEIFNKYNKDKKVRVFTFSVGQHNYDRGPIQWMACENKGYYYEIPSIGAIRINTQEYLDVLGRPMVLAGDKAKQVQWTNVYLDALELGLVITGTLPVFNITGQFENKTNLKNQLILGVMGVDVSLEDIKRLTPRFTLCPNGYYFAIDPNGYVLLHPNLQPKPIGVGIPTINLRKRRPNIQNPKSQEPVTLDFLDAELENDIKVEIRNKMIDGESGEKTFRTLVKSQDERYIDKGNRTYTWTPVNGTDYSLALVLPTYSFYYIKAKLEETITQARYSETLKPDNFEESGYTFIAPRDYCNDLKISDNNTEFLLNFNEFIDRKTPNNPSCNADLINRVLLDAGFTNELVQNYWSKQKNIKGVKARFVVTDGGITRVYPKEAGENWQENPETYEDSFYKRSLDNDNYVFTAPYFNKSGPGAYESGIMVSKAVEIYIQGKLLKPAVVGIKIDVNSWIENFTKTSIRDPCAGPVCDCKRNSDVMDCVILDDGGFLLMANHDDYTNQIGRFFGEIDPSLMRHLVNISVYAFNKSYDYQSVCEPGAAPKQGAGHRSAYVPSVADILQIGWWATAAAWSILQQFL
T2 sequence (P54289 947-1103 partner limits assumed): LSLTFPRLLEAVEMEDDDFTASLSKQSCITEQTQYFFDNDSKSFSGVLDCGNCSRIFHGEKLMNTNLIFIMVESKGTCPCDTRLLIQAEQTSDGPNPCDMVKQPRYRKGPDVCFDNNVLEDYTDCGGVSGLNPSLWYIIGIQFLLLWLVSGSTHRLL
T2 sequence (Q08289 whole entry partner): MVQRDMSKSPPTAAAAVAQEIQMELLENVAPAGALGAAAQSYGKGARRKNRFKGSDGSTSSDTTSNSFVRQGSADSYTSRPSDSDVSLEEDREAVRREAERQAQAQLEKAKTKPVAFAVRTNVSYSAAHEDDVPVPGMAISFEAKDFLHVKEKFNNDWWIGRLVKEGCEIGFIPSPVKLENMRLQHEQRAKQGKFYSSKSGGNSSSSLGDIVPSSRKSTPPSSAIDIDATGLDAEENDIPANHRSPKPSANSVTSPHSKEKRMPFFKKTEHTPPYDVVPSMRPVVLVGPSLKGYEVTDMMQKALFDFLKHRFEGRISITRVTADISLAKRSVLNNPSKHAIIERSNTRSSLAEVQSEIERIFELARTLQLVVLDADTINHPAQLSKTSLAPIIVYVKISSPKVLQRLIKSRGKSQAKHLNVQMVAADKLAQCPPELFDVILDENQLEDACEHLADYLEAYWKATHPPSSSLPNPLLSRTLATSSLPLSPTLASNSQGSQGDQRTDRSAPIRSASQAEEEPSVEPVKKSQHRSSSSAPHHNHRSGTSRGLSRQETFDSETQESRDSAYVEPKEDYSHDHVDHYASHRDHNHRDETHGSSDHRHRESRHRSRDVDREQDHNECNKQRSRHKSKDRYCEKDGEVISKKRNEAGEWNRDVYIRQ

| Compound | Ki [1, 4] | Ki [1, 5] | Ki [1, 6] | inhibition at 30 min, 0.3 μM [2] | inhibition at 30 min, 1 μM [2] | inhibition at 30 min, 3 μM [2] | inhibition at 30 min, 10 μM [2] | inhibition at 30 min, 30 μM [2] | reduction of cardiac related mortality [3] | reduction of frequency of hospitalization [3] |
| --- | --- | --- | --- | --- | --- | --- | --- | --- | --- | --- |
| COc1ccccc1NC(=O)C1=C(C)NC(SC)=C(C#N)C1c1ccccc1Cl (centres unmarked) [4-(2-chlorophenyl)-5-cyano-N-(2-methoxyphenyl)-2-methyl-6-(methylthio)-1,4-dihydropyridine-3-carboxamide] | 193 nM | 250 nM | 137 nM | -3% | 14% | 35% | 74% | – | – | – |
| CCOc1ccccc1C1C(C#N)=C(SC)NC(C)=C1C(=O)Nc1ccccc1 (centres unmarked) [5-cyano-4-(2-ethoxyphenyl)-2-methyl-6-(methylthio)-N-phenyl-1,4-dihydropyridine-3-carboxamide] | 1390 nM | 1140 nM | 1650 nM | 4% | 26% | 55% | 82% | – | – | – |
| C=CCOC(=O)C1=C(C)NC(C)=C(C(=O)OCC=C)C1c1cccc([N+](=O)[O-])c1 [diallyl 2,6-dimethyl-4-(3-nitrophenyl)-1,4-dihydropyridine-3,5-dicarboxylate] | 462 nM | 472 nM | 453 nM | 81% | 83% | 82% | 81% | – | – | – |
| CCOC(=O)C1=C(C)NC(C)=C(C(=O)OCC)C1c1ccc([N+](=O)[O-])cc1 [diethyl 2,6-dimethyl-4-(4-nitrophenyl)-1,4-dihydropyridine-3,5-dicarboxylate] | 219 nM | 184 nM | 254 nM | 25% | 43% | 59% | 76% | – | – | – |
| C=Cc1ccccc1C1C(C(=O)OC)=C(C)NC(C)=C1C(=O)OC [dimethyl 2,6-dimethyl-4-(2-vinylphenyl)-1,4-dihydropyridine-3,5-dicarboxylate] | 489 nM | 570 nM | 408 nM | 74% | 74% | 78% | 87% | – | – | – |
| COC(=O)C1=C(C)NC(C)=C(C(=O)OC)C1c1cccc(Cl)c1Cl [dimethyl 4-(2,3-dichlorophenyl)-2,6-dimethyl-1,4-dihydropyridine-3,5-dicarboxylate] | 375 nM | 382 nM | 368 nM | 73% | 75% | 77% | 78% | 84% | – | – |
| COC(=O)C1=C(C)NC(C)=C(C(=O)OC)C1c1ccc(Cl)c(Cl)c1 [dimethyl 4-(3,4-dichlorophenyl)-2,6-dimethyl-1,4-dihydropyridine-3,5-dicarboxylate] | 203 nM | 83 nM | 324 nM | 34% | 59% | 77% | 87% | 89% | – | – |
| CCOC(=O)C1=C(C)NC(C)=C(C(=O)OC(C)C)C1c1ccc([N+](=O)[O-])cc1 (centres unmarked) [ethyl isopropyl 2,6-dimethyl-4-(4-nitrophenyl)-1,4-dihydropyridine-3,5-dicarboxylate] | 114 nM | 77 nM | 152 nM | 28% | 49% | 63% | 73% | 86% | – | – |
| CC(=O)S[C@@H]1CC2=CC(=O)CC[C@]2(C)[C@H]2CC[C@@]3(C)[C@@H](CC[C@@]34CCC(=O)O4)[C@H]12 [spironolactone] | – | – | – | – | – | – | – | – | 30% | 33% |

Now from value to molecule, other results behind:

| Ki [1, 4] | Ki [1, 5] | Ki [1, 6] | Compound | inhibition at 30 min, 0.3 μM [2] | inhibition at 30 min, 1 μM [2] | inhibition at 30 min, 3 μM [2] | inhibition at 30 min, 10 μM [2] | inhibition at 30 min, 30 μM [2] | reduction of cardiac related mortality [3] | reduction of frequency of hospitalization [3] |
| --- | --- | --- | --- | --- | --- | --- | --- | --- | --- | --- |
| 53 nM | 90 nM | 16 nM | CCSC1=C(C#N)C(c2ccccc2Cl)C(C(=O)Nc2ccccc2OC)=C(C)N1 (centres unmarked) [4-(2-chlorophenyl)-5-cyano-6-(ethylthio)-N-(2-methoxyphenyl)-2-methyl-1,4-dihydropyridine-3-carboxamide] | 41% | 83% | 92% | 98% | 104% | – | – |
| 14.9 nM | 11.6 nM | 18.2 nM | CCCSC1=C(C#N)C(c2ccccc2Cl)C(C(=O)Nc2ccccc2OC)=C(C)N1 (centres unmarked) [4-(2-chlorophenyl)-5-cyano-N-(2-methoxyphenyl)-2-methyl-6-(propylthio)-1,4-dihydropyridine-3-carboxamide] | 31% | 69% | 90% | 96% | 102% | – | – |
| 61 nM | 69 nM | 53 nM | COC(=O)C1=C(C)NC(C)=C(C(=O)OC)C1c1cccc2ccccc12 [Dimethyl 2,6-dimethyl-4-(1-naphthyl)-1,4-dihydropyridine-3,5-dicarboxylate] | 80% | 88% | 94% | 100% | 104% | – | – |
| 37.3 nM | 23.6 nM | 51 nM | CCCC1=C(C(=O)OCC)C(c2ccccc2Cl)C(C#N)=C(SC)N1 (centres unmarked) [ethyl 4-(2-chlorophenyl)-5-cyano-6-(methylthio)-2-propyl-1,4-dihydropyridine-3-carboxylate] | 53% | 73% | 74% | 80% | – | – | – |

From patent US20100261765A1, “MINERALOCORTICOID RECEPTOR MODULATORS” (priority 2007, published 2010)
